Data: patent US20170044150A1, “IDENTIFICATION OF COMPOUNDS WHICH INHIBIT ATG8-ATG3 PROTEIN-PROTEIN INTERACTION AND THEIR USE AS ANTIPARASITICAL AGENTS” (THE JOHNS HOPKINS UNIVERSITY, priority 2014, published 2017)

How the values were obtained:
hLC3-hAtg3 interaction = biological target: T1, hLC3-hAtg3 interaction (Homo sapiens, UniProt Q9GZQ8); experiment: SPR protein-protein interaction assay, hLC3-hAtg3; format: binding; conditions: 500 μM
T1 construct: made in house; host or cells: E. coli Rosetta 2
Procedure: Surface Plasmon Resonance (SPR) protein-protein interaction assay. All measurements were carried out on a BiaCore 3000 instrument. We used the previously described SPR competition assay to test inhibition of the PfAtg8-PfAtg3 and hLC3-hAtg3 interaction. The standard running buffer was 10 mM HEPES, 150 mM NaCl, 0.01% Tween 20, adjusted to pH 7.5. Prior to performing SPR assays, all solutions were sterile filtered and degassed for 1 h at room temperature. For small molecule inhibitor studies, the same running buffer was supplemented with 1% DMSO. All dose dependency measurements were carried out in triplicate and corrected for DMSO absorption effects using double referencing with interspersed blank injections and an untreated flow cell on the SPR chip and the SPR analysis software Scrubber 2.0 (BioLogics). For each interaction pair, a new CM5 SPR chip was used. To exclude surface decay during the experiment, positive control injections were interspersed every 12th injection. For all interaction studies, the Atg3 homologue was immobilized and the corresponding Atg8 partner was passed as an analyte over the chip in either the presence or absence of small molecule inhibitors, dissolved to 100 mM in 100% DMSO and tested at 500 μM final concentration. […]

P. falciparum 3D7 = experiment: SYBR Green I growth inhibition assay, blood stage; format: cell-based; conditions: Plasmodium falciparum, 3D7, 3D7 blood stage cultures; read-out: IC50
Procedure: P. falciparum blood stage culturing. P. falciparum 3D7 and FCR3 cultures were maintained using modified, previously published methods at 37° C., 2% hematocrit of human red blood cells (Science 1976, 193, 673-675). Complete culture media consisted of sterile RPMI 1640 media (Life Technologies), supplemented with 10% human serum, 0.005% hypoxanthine, and buffered with final concentrations of 0.6% HEPES and 0.26% NaHCO3. The FCR3 strain was maintained at 3% CO2 and 5% O2, 92% N2 atmosphere, while the 3D7 strain was maintained at 5% CO2, 5% O2, 90% N2 atmosphere.
SYBR Green I growth inhibition assay. 10 μL of 10× compound diluted in RPMI 1640 media (Gibco) with a constant concentration of 1% DMSO was added to a 96 well plate (Costar), 90 μL of 1.5% ring stage, synchronized with 5% w/v sorbitol P. falciparum 3D7 parasites, 1% hematocrit, in culture media with 10% v/v human serum with 10 μg/mL gentamycin. Each compound concentration and 1% v/v DMSO controls were run in triplicate. Plates were incubated at 37° C. in 5% O2, 5% CO2 and 90% N2 for 72 hours. Plates were frozen, thawed, and incubated with 100-μL 2× SYBR green in lysis buffer (20 mM Tris pH 7.5, 5 mM EDTA, 0.008% Saponin, 0.08% TritonX-100) in the dark for at least one hour. Fluorescence was measured with a plate reader (HTS 7000, Perkin Elmer) at excitation/emission wavelengths of 485/535 nm.
Plasmodium parasite growth inhibition assay. P. falciparum 3D7 parasites were cultured as previously described (J Med Chem 57:4521-4531(2014)). Briefly, the parasites were cultured in 10% v/v human serum with 10 μg/mL gentamycin and synchronized with 5% w/v sorbitol. 1.5% ring stage parasites were added to 96 well plates (Costar) containing serial dilutions, performed in triplicate, of compound in RPMI 1640 media (Gibco). Plates were incubated at 37° C. in 5% O2, 5% CO2, and 90% N2 for 72 h. Plates were frozen, thawed, and incubated with 100 μL 2× SYBR green in lysis buffer (20 mM Tris pH 7.5, 5 mM EDTA, 0.008% Saponin, 0.08% TritonX-100) in the dark for 1 h. Fluorescence was measured with a plate reader (HTS 7000, PerkinElmer) at excitation/emission wavelengths of 485/535 nm.

P. falciparum 3D7-GFP = format: cell-based; conditions: 96 hrs post infection
Procedure: In vitro infection of human hepatocytes with P. falciparum 3D7-GFP. The HC-04 cell line (ATCC, Manassas, Va., USA) was maintained in complete medium (IMDM containing 2.5% FCS, 100 units/ml penicillin, 100 μg/ml streptomycin and 2 mM L-glutamine, all from GIBCO®, Life Technologies, Grand Island, N.Y.). P. falciparum 3D7-GFP parasite strain (PLoS ONE 2010, 5, e9156) was propagated in the Parasitology Core facility, the Johns Hopkins Malaria Research Institute. In vitro infection of human hepatocytes was done as described previously (PLoS ONE 2013, 8, e75321). Briefly, salivary glands were sequestered from infected Anopheles gambiae mosquitoes at day 17 after exposure to infective blood meal and homogenates were separated on an OptiPrep™ Density Gradient (Sigma-Aldrich, St. Louis, Mo.) at 12,000×g for 10 minutes. Sporozoites were collected from the gradient interface, washed in complete medium, counted using a hemocytometer and incubated with HC-04 cells at 3:1 sporozoite to hepatocyte ratio for 2 hours at 37° C. […]
Detection of P. falciparum exoerythrocytic forms in vitro. HC-04 human hepatocyte cell line (ATCC, Manassas, Va., USA) was maintained in complete medium (IMDM containing 2.5% FCS, 100 units/ml penicillin, 100 μg/ml streptomycin and 2 mM L-glutamine, all from GIBCO®, Life Technologies, Grand Island, N.Y.). P. falciparum 3D7HT-GFP parasite strain (PLoS One. 5(2):e9156. doi:10.1371/journal.pone.0009156 (2010)) was propagated in the Parasitology Core facility of the Johns Hopkins Malaria Research Institute. In vitro infection of human hepatocytes, and detection and quantification of P. falciparum 3D7HT-GFP EEFs by flow cytometry were performed as previously described (PLoS One. 8(9):e75321. doi:10.1371/journal.pone.0075321 (2013)).

HC-04 cells = experiment: HC-04 hepatocyte viability / cytotoxicity (Annexin-V, PI flow cytometry); format: cell-based, human; conditions: 96 hour treatment
PfAtg8 = experiment: Immunoblot analysis of PfAtg8 in P. falciparum blood stage cultures; format: cell-based; conditions: 100 μM, five-hour treatment
From the text: Immunoblot analysis of P. falciparum blood stage. […] RBCs were harvested with centrifugation, lysed with 0.2% saponin, and RBC lysate was removed through three 1× PBS washes. Parasites were harvested by centrifugation and washed in 1× PBS with Complete EDTA-free protease inhibitors (Roche) and lysed by repeated vortexing and boiling in SDS reducing sample buffer. […] HRP-conjugated secondary antibodies (Southern Biotech) were detected by SuperSignal West Femto (Thermo Scientific) or Amersham™ ECL™ Prime (GE Healthcare) chemiluminescent substrate. AP-conjugated secondary antibodies (EMD Millipore) were detected using NBT/BCIP (Promega) colorimetric stain. Total protein levels were visualized with ProAct™ Membrane Stain (Amresco) and quantified with ImageJ. Parasite morphology at time of harvesting was visualized with light microscopy at 100× magnification on Olympus BX53 system microscope (Olympus America, Inc.).

[1] = biological target: T2, PfAtg8-PfAtg3 interaction (Plasmodium falciparum, UniProt Q8IJK2); experiment: SPR protein-protein interaction assay, PfAtg8-PfAtg3 (VLS compounds); format: binding, P. falciparum; conditions: read-out: SPR-IC50; dose-dependent inhibition of plasmodial Atg8-Atg3
T2 construct: rows headed: SPR-IC50
T2 sequence (Q8IJK2 1-124 C32I/C119S/C122S): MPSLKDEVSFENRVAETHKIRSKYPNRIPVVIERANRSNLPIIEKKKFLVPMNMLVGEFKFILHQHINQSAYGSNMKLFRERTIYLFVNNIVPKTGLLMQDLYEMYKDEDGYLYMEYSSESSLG
Procedure: Surface Plasmon Resonance (SPR) protein-protein interaction assay. All measurements were carried out on a BiaCore 3000 instrument. We used the previously described SPR competition assay to test inhibition of the PfAtg8-PfAtg3 and hLC3-hAtg3 interaction. The standard running buffer was 10 mM HEPES, 150 mM NaCl, 0.01% Tween 20, adjusted to pH 7.5. Prior to performing SPR assays, all solutions were sterile filtered and degassed for 1 h at room temperature. For small molecule inhibitor studies, the same running buffer was supplemented with 1% DMSO. All dose dependency measurements were carried out in triplicate and corrected for DMSO absorption effects using double referencing with interspersed blank injections and an untreated flow cell on the SPR chip and the SPR analysis software Scrubber 2.0 (BioLogics). For each interaction pair, a new CM5 SPR chip was used. To exclude surface decay during the experiment, positive control injections were interspersed every 12th injection. For all interaction studies, the Atg3 homologue was immobilized and the corresponding Atg8 partner was passed as an analyte over the chip in either the presence or absence of small molecule inhibitors, dissolved to 100 mM in 100% DMSO and tested at 500 μM final concentration. Prior to the immobilization of Atg3 to an SPR chip, a pH scouting from pH 6.0 to pH 4.0 in intervals of 0.5 pH units was carried out to determine the best pre-concentration conditions for immobilization. Briefly, flow cells of an SPR chip were activated using N-hydroxysuccinimide (NHS) and 1-ethyl-3-(3-dimethylaminopropyl)carbodiimide (EDC) for 7 min with a flow rate of 20 μl/min. For PfAtg3 immobilization, a solution of 50 μg/ml of PfAtg3 in 10 mM sodium acetate pH 5.0 was passed over one flow cell until >500 Response Units (RU) were captured. The same procedure was followed for the immobilization of hAtg3. Activated free binding sites on the chip were blocked using 1 M ethanolamine for an additional 7 min. All experiments were carried out at 25° C. with a 40 μl/min flow rate and 75 s contact time, followed by a 1 min dissociation time and a 25 μl regeneration injection of 2 M MgCl2.
The dose-response curves were used to determine the approximate concentration of analyte (PfAtg8 or hLC3) needed to obtain a particular response unit (RU), typically in the range of 100-150 RU's. A fixed amount of analyte was then passed over the chip resulting in at least 100-150 response units (RU) in the absence of small molecules.

PfAtg8^CM = PfAtg8^CM (Plasmodium falciparum, UniProt Q8IJK2); experiment: Thermal shift assay; conditions: 100 μM to 2 mM

effect on hAtg3-hLC3 binding (hLC3-hAtg3 interaction) | SMILES | IC50 (P. falciparum 3D7) [µM] | reduction of the number of infected HC-04 cells (P. falciparum 3D7-GFP; 30 μM) [%] | GFP fluorescence intensity (P. falciparum 3D7-GFP) | cell viability of HC-04 cells (HC-04 cells) | increase of PfAtg8 protein levels compared to the loading control (PfAtg8) | mobility of Atg8 (PfAtg8) | IC50 [1] [µM] | effect on Tm of PfAtg8^CM (PfAtg8^CM)
significant increase in binding | Cc1cccn2cc(C(=O)NCC3CCN(Cc4cnc[nH]4)C3)nc12 (stereo not drawn) [Compound C24, N-([1-(1H-imidazol-5-ylmethyl)pyrrolidin-3-yl]methyl)-8-methyl-imidazo[3,2-a] pyridine-2-carboxamide] | – | – | – | – | – | – | – | –
– | Cc1cccc(CNC(=O)NCC2CCN(Cc3ccccn3)C2)c1 (stereo not drawn) [Compound C25, 1-[(3-methylphenyl)methyl]-3-([1-pyridin-2-ylmethyl-pyrrolidin-3-yl]methyl)urea] | 19 ± 6 | 30 | little effect | did not affect cell viability | over 10 fold | retarded, indicative of the unlipidated Atg8 species | 18.5 ± 2.1 | dose-dependent decrease
